Consider two molecules from publication PMC10424185, “C-2 Thiophenyl Tryptophan Trimers Inhibit Cellular Entry of SARS-CoV-2 through Interaction with the Viral Spike (S) Protein” (Journal of Medicinal Chemistry, 2023).

Each structure is given as a SMILES string.

Assay [1] deals with SARS-CoV-2 virus carrying the D614G S mutation. Type of assay: cell-based.
The test system is the same in assay [2]. Type of assay: cell-based. This is another data set of the same source.

For the molecule `CCC(CC)COC(=O)[C@H](C)N[P@](=O)(OC[C@H]1O[C@@](C#N)(c2ccc3c(N)ncnn23)[C@H](O)[C@@H]1O)Oc1ccccc1` [remdesivir, reference compound], in assay [1], the “relative virus production vs mock-treatment, A549-ACE2 cells” value is 0.002 ± 0.002. In addition, the “relative virus production vs mock-treatment, VeroE6-TMPRSS2 cells” value in assay [2] worked out at 0.002 ± 0.001.

On to `NCCOCCOCCC(=O)NCC(=O)NC(CCC(=O)NC(Cc1c(Sc2ccc([N+](=O)[O-])cc2)[nH]c2ccccc12)C(=O)O)(CCC(=O)NC(Cc1c(Sc2ccc([N+](=O)[O-])cc2)[nH]c2ccccc12)C(=O)O)CCC(=O)NC(Cc1c(Sc2ccc([N+](=O)[O-])cc2)[nH]c2ccccc12)C(=O)O` (stereo not shown) [Compound 63], for which the “relative virus production vs mock-treatment, A549-ACE2 cells” value in assay [1] worked out at 0.035 ± 0.032. Further, the “relative virus production vs mock-treatment, VeroE6-TMPRSS2 cells” value in assay [2] is on record as 0.059 ± 0.018.
